Patent US20170312253A1 (The Third Affiliated Hospital, Third Military Medical …, priority 2014, published 2017)

What was measured:
Aβ42 = Aβ42 (Homo sapiens, UniProt P05067); assay: Thioflavin T fluorescence test, inhibition of Aβ aggregation; format: biochemical; conditions: 10 μM Aβ 42, Edaravone 0-100 μM, 37° C., two days
Aβ fibers (Aβ 42) = Aβ fibers (Aβ 42) (Homo sapiens, UniProt P05067); assay: Thioflavin T fluorescence test, disaggregation of Aβ fibers; format: biochemical; conditions: preformed Aβ fibers, Edaravone 0-100 μM, three days
Aβ fibers (Aβ 42), sequence (P05067 672-713 limits assumed): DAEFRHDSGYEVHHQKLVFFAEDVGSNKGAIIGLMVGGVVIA

Aβ, CTFβ = assay: Western blot of Aβ and CTFβ in brain; format: in vivo; conditions: AD mice
Procedure: APPswe/PS1DE9 (AD) transgenic mice were purchased from Jackson Laboratory, USA (No. 005864), raised in the SPF grade animal house of The Third Affiliated Hospital of The Third Military Medical University. All the processes and correlated experiments applied to the mice were approved and filed with the Animal Ethics Committee of the Third Military Medical University. […] Alternatively, the daily dose for the prophylactic group may be 6.4 mg/kg, and the daily dose for the treatment group may be 12.8 mg/kg. […]
The enzymes related with Aβ formation and degradation their molecule levels, the levels of hyperphosphprylated Tau proteins, and the levels of synaptic plasticity correlated proteins were all detected with Western blot. […] The blotting was detected with the following antibodies: APP C terminal antibody (171610, Millipore), BACE1 antibody (Millipore), Aβ antibody (6E10, Abcam), Nepriiysin antibody (Millipore), RAGE antibody (Millipore), LRP antibody (5A6, Calbiochem), IDE antibody (epitomics), phosphorylated Tau protein antibody, including pS396 (Signalway), pT231 (Signalway), pS199 (epitomics), pS262 (Abcam), SNAP25 antibody (Millipore), Synaptophysin antibody (Millipore), Synapsin I antibody (Millipore), VAMP1 antibody (Millipore), PSD95 antibody (Millipore), F-actin antibody (Actin) (Sigma-Aldrich). […]

Gsk-3β [1] = target: T1, Gsk-3β (Mus musculus, UniProt Q9WV60); assay: Gsk-3β activity in the brain of AD mice; format: in vivo
T1 construct: from tissue; host or cells: brain of APPswe/PS1DE9 mice
T1 sequence (Q9WV60 whole entry): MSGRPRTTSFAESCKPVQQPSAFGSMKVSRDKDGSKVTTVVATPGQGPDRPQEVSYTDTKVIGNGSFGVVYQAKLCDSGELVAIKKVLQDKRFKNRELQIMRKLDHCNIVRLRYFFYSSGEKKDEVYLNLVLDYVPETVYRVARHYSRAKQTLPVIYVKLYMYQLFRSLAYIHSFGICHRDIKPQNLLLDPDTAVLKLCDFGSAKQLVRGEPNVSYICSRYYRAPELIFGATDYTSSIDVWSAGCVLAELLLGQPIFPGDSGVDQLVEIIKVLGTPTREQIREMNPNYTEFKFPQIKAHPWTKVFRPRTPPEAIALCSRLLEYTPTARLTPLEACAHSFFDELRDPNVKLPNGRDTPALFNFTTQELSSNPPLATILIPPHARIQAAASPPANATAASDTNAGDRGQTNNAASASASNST
Procedure: (§1) APPswe/PS1DE9 (AD) transgenic mice were purchased from Jackson Laboratory, USA (No. 005864), raised in the SPF grade animal house of The Third Affiliated Hospital of The Third Military Medical University. All the processes and correlated experiments applied to the mice were approved and filed with the Animal Ethics Committee of the Third Military Medical University. […] Alternatively, the daily dose for the prophylactic group may be 6.4 mg/kg, and the daily dose for the treatment group may be 12.8 mg/kg. Administration from 3-month old to 9-month old is the prophylactic test, and administration from 9-month old to 12-month old is the therapeutic test After reaching a stated time, the mice in each group received behavioral tests according to the method in the follows. Three mice in each group were taken for Golgi staining. The remaining mice were overly anaesthetized to receive brain anatomy. One side of the cerebral hemisphere was frozen and then for a biochemical analysis, and the other side of the cerebral hemisphere was fixed with 4% paraform for a histological analysis.

BACE = assay: In vitro test of BACE expression
Gsk-3β [2] = target: Gsk-3β (Homo sapiens, UniProt P49841); assay: In vitro test of Gsk-3β activities
Gsk-3β (Homo sapiens, UniProt P49841), sequence (P49841 whole entry, species assumed): as the sequence (Q9WV60 whole entry) above, with P390T, A392T, T400A, A402T counted along it

astrocyte = assay: Astrocyte reaction immunostaining (GFAP); format: in vivo; conditions: AD mice
Procedure: as §1
Immunohistochemistry in the method of bleach section was carried out according to the previous steps. The primary antibodies were rabbit-anti-mouse CD45 antibody (for labelling microglias), rabbit-anti-mouse GFAP (for labelling astrocytes) and rabbit-anti-mouse pSer396-Tau antibody, respectively. […]

[3] = tested on: dendritic spines of pyramidal cells in hippocampus CA1; assay: Golgi staining, dendritic spines; format: in vivo; conditions: AD mice
Procedure: as §1
After overly anesthetized, the animals received heart perfusions with normal saline containing 0.5% nitrous acid, 4% paraform, and Golgi dye liquor, successively. […]

[4] = tested on: oxidation level in the brain; assay: Oxidation level in brain tissues, DNPH Western blotting; format: in vivo; conditions: AD mice
Procedure: as §1, with “The remaining mice were overly anaesthetized to receive brain anatomy. One side of the cerebral hemisphere was frozen and then for a biochemical analysis, and the other side of the cerebral hemisphere was fixed with 4% paraform for a histological analysis.” left out
The carbonyl level of the proteins in the tissue reflects the oxidation level in the tissue. DNPH is reacted with the carbonyl of the proteins to form a protein-DNP hydrazone complex, and the level of the complex can he detected with DNPH antibodies so as to assess the oxidation level in the tissue, A 5 μl sample of fresh brain tissues was co-incubated with 12% SDS and a 10 μl DNPH working solution at room temperature for 20 min. […] Samples containing 15 μg total proteins were loaded and detected with Western blot. […]

[5] = tested on: cerebral ischemia-reperfusion injury; conditions: cited from earlier work

Aβ42, sequence (P05067 672-713 limits assumed): as the sequence (P05067 672-713 limits assumed) above

activity of Gsk-3β (Gsk-3β [1]): inhibit the activity of Gsk-3β
Gsk-3β activities in vitro (Gsk-3β [2]): inhibits the Gsk-3β activities
SMILES: CC1=NN(c2ccccc2)C(=O)C1 [Edaravone, 3-methyl-1-phenyl-2-pyrazolin-5-one]
inhibition of Aβ aggregation (thioflavin T) (Aβ42): effectively inhibit Aβ aggregation in a dose-dependent manner
disaggregation of formed Aβ fibers (thioflavin T) (Aβ fibers (Aβ 42)): disaggregate the formed Aβ fibers or larger aggregates effectively
formation of Aβ in the brain (Western blot) (Aβ, CTFβ): reduce the formation of Aβ in the brain
formation of CTFβ (Western blot) (Aβ, CTFβ): decrease the formation of CTFβ
BACE expression in vitro (BACE): inhibits the BACE expression
astrocyte reaction level in the brain (astrocyte; p.o.): significantly reduced, too
astrocyte reaction in the brain (astrocyte; prophylactic and therapeutic test): all reduced significantly
numbers of the dendritic spines [3]: also significantly increased
oxidation level in the brain [4]: significantly reduces the oxidation level
cerebral ischemia-reperfusion injury area ([5]; previous studies): reduce cerebral ischemia-reperfusion injury area
gene expression of the Fas/FasL signaling pathway ([5]; transient focal ischemia in rats): suppress the gene expression of the Fas/FasL signaling pathway
